*1 amine or outer side, *2 acyl side, *3 side chain or, on linkers, in order; H or OH if unused. Where a SMILES comes first, the peptide text is derived from it. Bridges are numbered along the chain shown (N, C = ends). Roman numbers before positions name the chains, in order. X1 = CN(CCCC(=O)NC(CCC(=O)[*:1])CCC(=O)[*:2])C(=O)c1ccccc1-c1c2ccc(=N)c(S(=O)(=O)O)c-2oc2c(S(=O)(=O)O)c(N)ccc12; X2 = NC(CCC(=O)[*:1])CCC(=O)[*:2]

Consider 2 compounds from PMC5884648, “Relationship between the agonist activity of synthetic ligands of TRAIL-R2 and their cell surface binding modes” (Oncotarget, 2018).

Assay [1] has as its system BJAB cells. Put plainly: Cell viability MTS assay, BJAB. It counts as cell-based, human. The following applies: 24 hours. As to the method:
(§1) BJAB, Jurkat and HCT116 cells (10^5 cells/well) were cultured in 100 µL of culture medium in 96-flat bottom well plates. The next day, cells were treated with the indicated concentrations of the different TRAILmin/DR5 peptides. After 24 hours of treatment cell viability measurement was performed by the MTS assay according to the manufacturer specification (Promega Corporation, Madison, WI, USA).

Assay [2] relates to HCT116 cells. Put plainly: Cell viability MTS assay, HCT116. To be noted: 24 hours. It counts as cell-based, human. Here is the method:
as §1
(Tetrazolium dyes change colour on reduction, which living cells bring about.)

Assay [3] deals with Jurkat cells. Kind of assay: Cell viability MTS assay, Jurkat. It is filed as cell-based, human. The following applies: 24 hours. Here is the method:
as §1

The target of assay [4] is T1, human TRAIL-R2 (Homo sapiens, UniProt O14763).
T1 construct: purchased Enzo Life Sciences
T1 sequence (O14763 56-440): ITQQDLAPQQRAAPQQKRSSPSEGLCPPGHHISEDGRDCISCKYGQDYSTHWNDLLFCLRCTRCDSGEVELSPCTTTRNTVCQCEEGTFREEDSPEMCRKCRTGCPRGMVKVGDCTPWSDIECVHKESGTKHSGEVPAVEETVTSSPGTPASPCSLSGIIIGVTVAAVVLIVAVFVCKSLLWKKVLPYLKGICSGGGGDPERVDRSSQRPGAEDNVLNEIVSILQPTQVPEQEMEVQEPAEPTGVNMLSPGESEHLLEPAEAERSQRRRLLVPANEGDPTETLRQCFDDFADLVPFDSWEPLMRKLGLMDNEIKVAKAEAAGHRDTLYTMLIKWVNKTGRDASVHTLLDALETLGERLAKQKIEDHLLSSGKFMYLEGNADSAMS
Put plainly: Surface plasmon resonance on sensor-immobilized TRAIL-R2. It counts as binding. The following applies: for koff / kon: 25° C, Langmuir model. As to the method: SPR assays were performed on a Biacore T200™, at 25° C. The running buffer was HBS-EP [10 mM HEPES (pH 7.4) containing 0.15 M NaCl, 3.4 mM EDTA and 0.005% (v/v) Tween P20]. The human TRAIL-R2 (Enzo Life Sciences, Farmingdale, NY, USA) receptor was immobilized on a sCM5 sensor chip (GE Healthcare) using the standard amine coupling procedure. The receptors were diluted in 10 mM acetate buffer (pH 5.0) at a concentration of 5 μg/mL. The TRAIL-R2 immobilization level on the sensor chip was 430 RU. Peptides were injected at a flow rate of 5 μL/min for 120 s and allowed to dissociate for an additional 420 s. Surfaces were then regenerated for 5 s with 25 mM HCl. All binding curves were double-referenced (i.e. subtraction of the data of the empty flow cell followed by the subtraction of the data from a running buffer injection cycle).
(§2) Double-referenced SPR binding curves sets were fitted globally using the BIAevaluation 4.1.1 (GE Healthcare Biacore) or TraceDrawer (Ridgeview Diagnostics AB, Uppsala, Sweden) softwares. The signal recorded with the LigandTracer on an empty spot or slide was subtracted from that recorded on cell-carrying slides. The resulting binding curves were analyzed by kinetic distribution analysis using the tool Interaction Map (Ridgeview Diagnostics AB, Uppsala, Sweden). Interaction Map decomposes the kinetic curve recorded for the binding of a homogeneous ligand to a heterogeneous group of targets into its different components. Results are represented as interaction maps (kon versus koff, log scale), where the color of each populated area represents its degree of contribution to the kinetic curve (red = high contribution, blue = low contribution).
A general note: Surface plasmon resonance follows binding to a sensor surface in real time, without labels.

Assay [5] concerns the target T2, TRAIL-R2 expressed on HCT116 cells (Homo sapiens, UniProt O14763).
T2 construct: we used BJAB, HCT116 and Jurkat that express a natural level of TRAIL-R2 receptors; endogenous in cells; host or cells: HCT116
Kind of assay: LigandTracer real time binding on living HCT116 cells. The following applies: HCT116 cells expressing TRAIL-R2. As to the method: The adherent cells HCT116-TRAIL-R2-DEF and HCT116 cells were directly plated on glass slides (Ø20 mm) (10^6 cells/well). The cells in suspension (BJAB and BJAB-TRAIL-R2-DEF) were covalently adhered to glass slides coated with poly-L-lysine (0.1% v/v) (Sigma Aldrich, Saint Louis, MO, USA). The adhesion was strong enough for measurement during 10h. After 24 hours, the slides were fixed with superglue at different locations of a Petri dish, which was inserted in the LigandTracer Green instrument (Ridgeview Instrument AB, Uppsala, Sweden). An empty spot or empty glass slide fixed to the Petri dish was used to record the background signal. This set-up allowed the simultaneous monitoring of the binding of a given peptide to different cell-carrying glass slides fixed to the dish. […] The fluorescence signal is recorded over time when the slide is out of the solution, and therefore corresponds to the amount of bound peptide. […]
Double-referenced SPR binding curves sets were fitted globally using the BIAevaluation 4.1.1 (GE Healthcare Biacore) or TraceDrawer (Ridgeview Diagnostics AB, Uppsala, Sweden) softwares. The signal recorded with the LigandTracer on an empty spot or slide was subtracted from that recorded on cell-carrying slides. The resulting binding curves were analyzed by kinetic distribution analysis using the tool Interaction Map (Ridgeview Diagnostics AB, Uppsala, Sweden). […]

In assay [6] the target is T3, TRAIL-R2 expressed on Jurkat cells (Homo sapiens, UniProt O14763).
T3 construct: we used BJAB, HCT116 and Jurkat that express a natural level of TRAIL-R2 receptors; endogenous in cells; host or cells: Jurkat
T3 sequence (O14763 56-440): as above
Kind of assay: LigandTracer real time binding on living Jurkat cells.

The target of assay [7] is T4, TRAIL-R2 on BJAB cells (Homo sapiens, UniProt O14763).
T4 construct: expressed in transfected cells
T4 sequence (O14763 56-440): as above
Put plainly: Flow cytometry staining with fluorescent peptides, BJAB. It counts as binding. Here is the method: (§3) 10^6 cells were washed in PBS containing 2% FCS and then incubated at 4° C for 30 min with an anti-TRAIL-R2 antibody (clone BK9 Diaclone, Besançon, France) according to concentration recommended by the manufacturer or with fluorescent peptides at the concentration of 1 µM. After two washes in PBS-2% FBS, TRAIL-R2 expression was monitored by flow cytometry (Guava easyCyte™, Merck Milipore, Darmstadt, Germany) and data were analyzed with InCyte Software (Merck Milipore).
(In general: A flow cytometer gives signals particle by particle.)

The target of assay [8] is T5, TRAIL-R2 on HCT116 cells (Homo sapiens, UniProt O14763).
T5 construct: we used BJAB, HCT116 and Jurkat that express a natural level of TRAIL-R2 receptors; endogenous in cells; host or cells: HCT116
T5 sequence (O14763 56-440): as above
Put plainly: Flow cytometry staining with fluorescent peptides, HCT116. It is filed as binding. As to the method: as §3

Assay [9] addresses TRAIL-R2 expressed on BJAB cells (Homo sapiens, UniProt O14763). Put plainly: LigandTracer real time binding on living BJAB cells. Also noted: expressed in transfected cells. As to the method:
The adherent cells HCT116-TRAIL-R2-DEF and HCT116 cells were directly plated on glass slides (Ø20 mm) (10^6 cells/well). The cells in suspension (BJAB and BJAB-TRAIL-R2-DEF) were covalently adhered to glass slides coated with poly-L-lysine (0.1% v/v) (Sigma Aldrich, Saint Louis, MO, USA). The adhesion was strong enough for measurement during 10h. After 24 hours, the slides were fixed with superglue at different locations of a Petri dish, which was inserted in the LigandTracer Green instrument (Ridgeview Instrument AB, Uppsala, Sweden). An empty spot or empty glass slide fixed to the Petri dish was used to record the background signal. This set-up allowed the simultaneous monitoring of the binding of a given peptide to different cell-carrying glass slides fixed to the dish. Three mL of solution (culture medium without or with fluorescent peptide) were added to the dish. In the LigandTracer instrument, the dish is tilted and rotates. Consequently the 3 mL solution covers only the lower part of the dish and each cell-carrying slide is alternatively in contact and out of contact with the solution (at intervals of 8 to 16 s). The fluorescence signal is recorded over time when the slide is out of the solution, and therefore corresponds to the amount of bound peptide. The solution in the dish was initially the culture medium (∼30 min) to provide a stable base line. The fluorescent peptide was then added in increasing doses (10, 30 and 90 nM) every two to three hours. Finally the peptide-containing sample was replaced with fresh medium and the dissociation of the peptide from the cells was followed overnight. The measurements were conducted at room temperature (approximately 20° C).
as §2

Chain of TRAIL-R2 expressed on BJAB cells (O14763 56-440): as above
T2 sequence (O14763 56-440): as above

For orientation: koff means a measure of how fast the partners let go of each other. Read a low koff as a long-lived complex. As usually defined, the kon is the rate constant with which the complex forms. For the compound `CC[C@H](C)[C@@H]1NC(=O)[C@H](CCCNC(=N)N)NC(=O)[C@H](CC(N)=O)NC(=O)[C@H](CC(=O)O)NC(=O)[C@H](CC(C)C)NC(=O)[C@@H](NC(=O)[C@H](CC(=O)O)NC(=O)[C@H](Cc2c[nH]c3ccccc23)NC(C)=O)CSSC[C@@H](C(=O)N[C@H](C(=O)N[C@@H](CCCNC(=N)N)C(=O)N[C@@H](CC(C)C)C(N)=O)C(C)C)NC(=O)[C@H](CCC(N)=O)NC(=O)[C@H](CCCNC(=N)N)NC(=O)[C@H](CCCCNC(=O)CCC(N)CCC(=O)NCCCC[C@@H]2NC(=O)CNC(=O)[C@H]([C@@H](C)CC)NC(=O)[C@H](CCCNC(=N)N)NC(=O)[C@H](CC(N)=O)NC(=O)[C@H](CC(=O)O)NC(=O)[C@H](CC(C)C)NC(=O)[C@@H](NC(=O)[C@H](CC(=O)O)NC(=O)[C@H](Cc3c[nH]c4ccccc34)NC(C)=O)CSSC[C@@H](C(=O)N[C@H](C(=O)N[C@@H](CCCNC(=N)N)C(=O)N[C@@H](CC(C)C)C(N)=O)C(C)C)NC(=O)[C@H](CCC(N)=O)NC(=O)[C@H](CCCNC(=N)N)NC2=O)NC(=O)CNC1=O` (stereo partly drawn) [2d] (I: Ac-WDCLDNRIGKRQCVRL-NH2 / II: Ac-WDCLDNRIGKRQCVRL-NH2; disulfide I:3-I:13, II:3-II:13; linker I:10-II:10 via X2; N-terminus and C-terminus assumed), in assay [1], the “apoptosis induction in BJAB cells” value is on record as “underwent apoptosis”. Further, the “apoptosis induction in HCT116 cells” value in [2] is reported as “strong resistance”. Moreover, the “apoptosis induction in Jurkat cells” value in assay [3] was “strong resistance”. In assay [4] (SPR), the koff came out at 0.00018 s⁻¹ and the kon worked out at 1.5e+06 M⁻¹ s⁻¹. In assay [4] (SPR, ratio of KD 1d to 2d), the “KD of 2d smaller than KD of 1d” value was “approximately 400 fold”. In [4] (TRAIL-R2 surface 1, one:one interaction model), this compound yielded an Rmax of 33. In [4] (TRAIL-R2 surface 2, one:one interaction model), this compound showed an Rmax of 12.

With `CC[C@H](C)[C@@H]1NC(=O)[C@H](CCCNC(=N)N)NC(=O)[C@H](CC(N)=O)NC(=O)[C@H](CC(=O)O)NC(=O)[C@H](CC(C)C)NC(=O)[C@@H](NC(=O)[C@H](CC(=O)O)NC(=O)[C@H](Cc2c[nH]c3ccccc23)NC(C)=O)CSSC[C@@H](C(=O)N[C@H](C(=O)N[C@@H](CCCNC(=N)N)C(=O)N[C@@H](CC(C)C)C(N)=O)C(C)C)NC(=O)[C@H](CCC(N)=O)NC(=O)[C@H](CCCNC(=N)N)NC(=O)[C@H](CCCCNC(=O)CCC(CCC(=O)NCCCC[C@@H]2NC(=O)CNC(=O)[C@H]([C@@H](C)CC)NC(=O)[C@H](CCCNC(=N)N)NC(=O)[C@H](CC(N)=O)NC(=O)[C@H](CC(=O)O)NC(=O)[C@H](CC(C)C)NC(=O)[C@@H](NC(=O)[C@H](CC(=O)O)NC(=O)[C@H](Cc3c[nH]c4ccccc34)NC(C)=O)CSSC[C@@H](C(=O)N[C@H](C(=O)N[C@@H](CCCNC(=N)N)C(=O)N[C@@H](CC(C)C)C(N)=O)C(C)C)NC(=O)[C@H](CCC(N)=O)NC(=O)[C@H](CCCNC(=N)N)NC2=O)NC(=O)CCCN(C)C(=O)c2ccccc2-c2c3ccc(=N)c(S(=O)(=O)O)c-3oc3c(S(=O)(=O)O)c(N)ccc23)NC(=O)CNC1=O` (stereo partly drawn) [f2d] (I: Ac-WDCLDNRIGKRQCVRL-NH2 / II: Ac-WDCLDNRIGKRQCVRL-NH2; disulfide I:3-I:13, II:3-II:13; linker I:10-II:10 via X1; N-terminus and C-terminus assumed), in assay [1], the “apoptosis induction in BJAB cells” value was “induced apoptosis”. For the same compound, the “apoptosis induction in HCT116 cells” value in assay [2] is on record as “scarcely induced their apoptosis”. The koff in [4] (SPR) is 0.00026 s⁻¹. The compound further came in with a kon in assay [4] (SPR) of 150000 M⁻¹ s⁻¹. In addition, the cell surface binding result in assay [5] is recorded as “bound weakly”; in assay [6], “weak binding signal, if any”; in [9] (BJAB cells deficient for TRAIL-R2) it was “weak signals”; in [9] (BJAB cells expressing TRAIL-R2), “strong binding”. Also, the “binding by flow cytometry” value in [7] (BJAB cells deficient for TRAIL-R2, peptide 1 µM) was “not”; in assay [7] (BJAB cells expressing TRAIL-R2, peptide 1 µM) it was “bound”; in assay [8] (HCT116 cells deficient for TRAIL-R2, peptide 1 µM), “not”; in assay [8] (HCT116 cells expressing TRAIL-R2, peptide 1 µM), “bound”. For the same compound, the fluorescent signal reached in assay [9] (BJAB cells that expressed TRAIL-R2, 10, 30 and (f1d) 90 nM) is on record as more than 25.
